Laboratory results as given in patent US4011307A, “Production of ^203 Pb-tris-hydroxymethyl amino methane” (The United States of America as represented by the United …, priority 1976, dated 1977).

How the values were obtained:
tumors = settings: previous attempts reported; cited from earlier work
[1] = test system: tissues of hamsters with eye melanoma; assay: Distribution of carrier-free lead-203 tris in tissue at various times; type: in vivo, hamster
Procedure: The ^203 Pb-tris as described herein was injected in a relatively large number of mice and hamsters which were tumor bearing animals. […]

[2] = Toxicity effects from the presence of lead in the blood stream; type: in vivo; settings: near carrier-free lead-203 complexed with tris
melanomas, tumors = assay: Localization / tissue distribution study in tumor bearing animals; type: in vivo, mice and hamsters
Procedure: The ^203 Pb-tris as described herein was injected in a relatively large number of mice and hamsters which were tumor bearing animals.

Substance: lead
- Outcome of previous attempts to use lead as agent for the treatment of tumors (tumors): apparently failed to produce useful results due to the toxicity of lead in the bloodstream

Substance: Lead-203 tris-hydroxymethyl aminomethane
- Distribution, Blood ([1]; Time 1, 60 min): 3.870 Percent Uptake per Gram of Tis
- Distribution, Blood ([1]; Time 3, 180 min): 3.635 Percent Uptake per Gram of Tis
- Distribution, Blood ([1]; Time 6, 360 min): 5.847 Percent Uptake per Gram of Tis
- Distribution, Blood ([1]; Time 24, 1440 min): 3.007 Percent Uptake per Gram of Tis
- Distribution, Blood ([1]; Time 72, 4320 min): 3.792 Percent Uptake per Gram of Tis
- Distribution, Blood ([1]; Time 144, 8640 min): 0.852 Percent Uptake per Gram of Tis
- Distribution, Bone ([1]; Time 1, 60 min): 3.977 Percent Uptake per Gram of Tis
- Distribution, Bone ([1]; Time 3, 180 min): 3.991 Percent Uptake per Gram of Tis
- Distribution, Bone ([1]; Time 6, 360 min): 5.320 Percent Uptake per Gram of Tis
- Distribution, Bone ([1]; Time 24, 1440 min): 5.342 Percent Uptake per Gram of Tis
- Distribution, Bone ([1]; Time 72, 4320 min): 9.761 Percent Uptake per Gram of Tis
- Distribution, Bone ([1]; Time 144, 8640 min): 5.757 Percent Uptake per Gram of Tis
- Distribution, Choroid ([1]; Time 1, 60 min): 1.109 Percent Uptake per Gram of Tis
- Distribution, Choroid ([1]; Time 3, 180 min): 0.950 Percent Uptake per Gram of Tis
- Distribution, Choroid ([1]; Time 6, 360 min): 0.337 Percent Uptake per Gram of Tis
- Distribution, Choroid ([1]; Time 24, 1440 min): 0.361 Percent Uptake per Gram of Tis
- Distribution, Choroid ([1]; Time 72, * 4 animals, 4320 min): 0.127 Percent Uptake per Gram of Tis
- Distribution, Choroid ([1]; Time 144, 8640 min): 0.131 Percent Uptake per Gram of Tis
- Distribution, Cornea ([1]; Time 1): 0.834 Percent Uptake per Gram of Tis
- Distribution, Cornea ([1]; Time 3): 0.173 Percent Uptake per Gram of Tis
- Distribution, Cornea ([1]; Time 6): 0.891 Percent Uptake per Gram of Tis
- Distribution, Cornea ([1]; Time 24): 0.200 Percent Uptake per Gram of Tis
- Distribution, Cornea ([1]; Time 72, * 4 animals): 0.084 Percent Uptake per Gram of Tis
- Distribution, Cornea ([1]; Time 144): 0.062 Percent Uptake per Gram of Tis
- Distribution, Gonads ([1]; Time 1, 60 min): 2.076 Percent Uptake per Gram of Tis
- Distribution, Gonads ([1]; Time 3, 180 min): 0.238 Percent Uptake per Gram of Tis
- Distribution, Gonads ([1]; Time 6, 360 min): 0.663 Percent Uptake per Gram of Tis
- Distribution, Gonads ([1]; Time 24, 1440 min): 0.164 Percent Uptake per Gram of Tis
- Distribution, Gonads ([1]; Time 144, 8640 min): 0.079 Percent Uptake per Gram of Tis
- Distribution, Intestines ([1]; Time 1, 60 min): 0.841 Percent Uptake per Gram of Tis
- Distribution, Intestines ([1]; Time 3, 180 min): 0.653 Percent Uptake per Gram of Tis
- Distribution, Intestines ([1]; Time 6, 360 min): 1.593 Percent Uptake per Gram of Tis
- Distribution, Intestines ([1]; Time 24, 1440 min): 1.664 Percent Uptake per Gram of Tis
- Distribution, Intestines ([1]; Time 72, * 4 animals, 4320 min): 2.064 Percent Uptake per Gram of Tis
- Distribution, Intestines ([1]; Time 144, 8640 min): 0.217 Percent Uptake per Gram of Tis
- Distribution, Kidney ([1]; Time 1, 60 min): 25.32 Percent Uptake per Gram of Tis
- Distribution, Kidney ([1]; Time 3, 180 min): 18.156 Percent Uptake per Gram of Tis
- Distribution, Kidney ([1]; Time 6, 360 min): 17.703 Percent Uptake per Gram of Tis
- Distribution, Kidney ([1]; Time 24, 1440 min): 10.508 Percent Uptake per Gram of Tis
- Distribution, Kidney ([1]; Time 72, 4320 min): 17.443 Percent Uptake per Gram of Tis
- Distribution, Kidney ([1]; Time 144, 8640 min): 3.904 Percent Uptake per Gram of Tis
- Distribution, Lens ([1]; Time 1, 60 min): 0.017 Percent Uptake per Gram of Tis
- Distribution, Lens ([1]; Time 3, 180 min): 0.023 Percent Uptake per Gram of Tis
- Distribution, Lens ([1]; Time 6, 360 min): 0.021 Percent Uptake per Gram of Tis
- Distribution, Lens ([1]; Time 24, 1440 min): 0.005 Percent Uptake per Gram of Tis
- Distribution, Lens ([1]; Time 72, * 4 animals, 4320 min): 0.006 Percent Uptake per Gram of Tis
- Distribution, Lens ([1]; Time 144, 8640 min): 0.005 Percent Uptake per Gram of Tis
- Distribution, Liver ([1]; Time 1, 60 min): 5.463 Percent Uptake per Gram of Tis
- Distribution, Liver ([1]; Time 3, 180 min): 4.273 Percent Uptake per Gram of Tis
- Distribution, Liver ([1]; Time 6, 360 min): 7.188 Percent Uptake per Gram of Tis
- Distribution, Liver ([1]; Time 24, 1440 min): 3.729 Percent Uptake per Gram of Tis
- Distribution, Liver ([1]; Time 72, 4320 min): 4.841 Percent Uptake per Gram of Tis
- Distribution, Liver ([1]; Time 144, 8640 min): 2.331 Percent Uptake per Gram of Tis
- Distribution, Melanoma-Eye ([1]; Time 1, 60 min): 1.048 Percent Uptake per Gram of Tis
- Distribution, Melanoma-Eye ([1]; Time 3, 180 min): 0.976 Percent Uptake per Gram of Tis
- Distribution, Melanoma-Eye ([1]; Time 6, 360 min): 1.609 Percent Uptake per Gram of Tis
- Distribution, Melanoma-Eye ([1]; Time 24, 1440 min): 1.314 Percent Uptake per Gram of Tis
- Distribution, Melanoma-Eye ([1]; Time 72, * 4 animals, 4320 min): 0.724 Percent Uptake per Gram of Tis
- Distribution, Melanoma-Eye ([1]; Time 144, 8640 min): 0.821 Percent Uptake per Gram of Tis
- Distribution, Melanoma-Skin ([1]; Time 1, 60 min): 1.095 Percent Uptake per Gram of Tis
- Distribution, Melanoma-Skin ([1]; Time 3, 180 min): 1.051 Percent Uptake per Gram of Tis
- Distribution, Melanoma-Skin ([1]; Time 6, 360 min): 1.209 Percent Uptake per Gram of Tis
- Distribution, Melanoma-Skin ([1]; Time 24, 1440 min): 0.845 Percent Uptake per Gram of Tis
- Distribution, Melanoma-Skin ([1]; Time 72, 4320 min): 1.010 Percent Uptake per Gram of Tis
- Distribution, Melanoma-Skin ([1]; Time 144, 8640 min): 0.749 Percent Uptake per Gram of Tis
- Distribution, Muscle ([1]; Time 1): 0.159 Percent Uptake per Gram of Tis
- Distribution, Muscle ([1]; Time 3): 0.100 Percent Uptake per Gram of Tis
- Distribution, Muscle ([1]; Time 6): 0.090 Percent Uptake per Gram of Tis
- Distribution, Muscle ([1]; Time 24): 0.026 Percent Uptake per Gram of Tis
- Distribution, Muscle ([1]; Time 72): 0.041 Percent Uptake per Gram of Tis
- Distribution, Muscle ([1]; Time 144, 8640 min): 0.027 Percent Uptake per Gram of Tis
- Distribution, Normal-Eye ([1]; Time 1, 60 min): 0.200 Percent Uptake per Gram of Tis
- Distribution, Normal-Eye ([1]; Time 3, 180 min): 0.086 Percent Uptake per Gram of Tis
- Distribution, Normal-Eye ([1]; Time 6, 360 min): 0.111 Percent Uptake per Gram of Tis
- Distribution, Normal-Eye ([1]; Time 24, 1440 min): 0.054 Percent Uptake per Gram of Tis
- Distribution, Normal-Eye ([1]; Time 72, 4320 min): 0.084 Percent Uptake per Gram of Tis
- Distribution, Normal-Eye ([1]; Time 144, 8640 min): 0.047 Percent Uptake per Gram of Tis
- Distribution, Normal-Skin ([1]; Time 1, 60 min): 0.401 Percent Uptake per Gram of Tis
- Distribution, Normal-Skin ([1]; Time 3, 180 min): 0.256 Percent Uptake per Gram of Tis
- Distribution, Normal-Skin ([1]; Time 6, 360 min): 0.286 Percent Uptake per Gram of Tis
- Distribution, Normal-Skin ([1]; Time 24, 1440 min): 0.090 Percent Uptake per Gram of Tis
- Distribution, Normal-Skin ([1]; Time 72, 4320 min): 0.122 Percent Uptake per Gram of Tis
- Distribution, Normal-Skin ([1]; Time 144, 8640 min): 0.071 Percent Uptake per Gram of Tis
- Distribution, Retina ([1]; Time 1, 60 min): 0.169 Percent Uptake per Gram of Tis
- Distribution, Retina ([1]; Time 3, 180 min): 0.074 Percent Uptake per Gram of Tis
- Distribution, Retina ([1]; Time 6, 360 min): 0.251 Percent Uptake per Gram of Tis
- Distribution, Retina ([1]; Time 24, 1440 min): 0.206 Percent Uptake per Gram of Tis
- Distribution, Retina ([1]; Time 72, * 4 animals, 4320 min): 0.091 Percent Uptake per Gram of Tis
- Distribution, Retina ([1]; Time 144, 8640 min): 0.127 Percent Uptake per Gram of Tis
- Distribution, Vitreous ([1]; Time 1, 60 min): 0.031 Percent Uptake per Gram of Tis
- Distribution, Vitreous ([1]; Time 3, 180 min): 0.028 Percent Uptake per Gram of Tis
- Distribution, Vitreous ([1]; Time 6, 360 min): 0.036 Percent Uptake per Gram of Tis
- Distribution, Vitreous ([1]; Time 24, 1440 min): 0.031 Percent Uptake per Gram of Tis
- Distribution, Vitreous ([1]; Time 72, * 4 animals, 4320 min): 0.014 Percent Uptake per Gram of Tis
- Distribution, Vitreous ([1]; Time 144, 8640 min): 0.018 Percent Uptake per Gram of Tis
- Toxicity effects from the presence of lead in the blood stream [2]: avoided or minimized
- Ability to localize in melanomas (melanomas, tumors; extensive studies): has the ability to localize in melanomas, especially those of the eye
- Uptake of ^203 Pb by the tumors (melanomas, tumors; tumor bearing mice and hamsters, injected, tissue distribution): selective uptake by the tumors
